In patent publication US20030219785A1, “Targeted drug delivery methods” (Vanderbilt University, priority 2002, published 2003):
Entries after “also recorded” stand apart in the source; their conditions may differ.

What was measured:
GL-261 tumors = test: Tumor volume assessment, GL-261; type: in vivo, mouse; conditions: group 3: cisplatin 0.08 mg tail vein days 1-4, no irradiation
From the text: H460 cell line forms tumor in nude mice. […] Forty mice bearing GI-261 tumors on their right hind limbs were divided eight groups (five mice per group). An equal number of large and intermediate size (11-15 mm) tumors were present in each group. The first group received no treatment as the control group. The second group received radiation therapy (3 Gy×2 fractions) on days 1 and 3. Irradiated mice were immobilized in […] chambers and the entire body was shielded with lead, except for tumor bearing hind limb. The third group received 0.08 mg/100 μl of cisplatin (Sigma) in PBS by tail vein injection on days 1, 2, 3 and 4. The forth group received 0.5 mg of nanomag beads-10 μg of WGA-0.08 mg cisplatin cocktail in 100 μl PBS by tail vein injection on days 1, 2, 3 and 4. The fifth group received irradiation of 3 Gy on days 1 and 3 and the same treatments as group 3 after irradiation on days 1, 2, 3 and 4. […] Tumors volumes were measured 3 times weekly using skim calipers as described previously (see […]., et al., Nat. Med. 1:786-791 (1995); Hanson, et al., Radiation Research 142:281-287 (1995)) starting on day 1 and ending on the eighth measurement, or when the tumor volume reached 5 times that of the beginning volumes. Data was calculated as the percentage of original (day 1) tumor volume and graphed as fractional tumor volume+/-standard deviation (SD) for each treatment group. […]

H460 tumors = test: Tumor volume assessment, H460; type: in vivo, mouse; conditions: irradiation 3 Gy x2 + cisplatin 0.08 mg days 1-4
Experimental: H460 cell line forms tumor in nude mice. […] Twenty mice bearing H460 tumors with a range of 10-13 mm of diameter on their right hind limbs were divided into four groups (five mice per group). The first group received no treatment as the control group. The second group received radiation therapy (3 Gy×2 fraction) on days 1 and 3. The third group received radiation as […] and 0.08 mg/100 μl of cisplatin in PBS by tail vein injection after irradiation on days 1, 2, 3 and 4. The forth group received radiation as […] and 0.5 mg of nanomag beads-10 μg of WGA-0.08 mg of cisplatin cocktail in 100 μl PBS by tail vein injection after irradiation on days 1, 2, 3 and 4 with 15 minutes of magnetic force field after each time injection. Tumors volumes were measured 3 times weekly using skim calipers as described previously (see […]., et al., Nat. Med. 1:786-791 (1995); Hanson, et al., Radiation Research 142:281-287 (1995)) starting on day 1 and ending on the eighth measurement, or when the tumor volume reached 5 times that of the beginning volumes. Data was calculated as the percentage of original (day 1) tumor volume and graphed as fractional tumor volume+/-standard deviation (SD) for each treatment group. […]

[1] = test system: inflamed irradiated vasculature of LLC tumor; test: WGA-FITC binding in LLC tumor vascular window model; type: in vivo, mouse; conditions: LLC window irradiated 2.5 Gy vs 0 Gy; 100 μl WGA-FITC tail vein; pictures 60 min after injection
[2] = test system: endothelial cells of tumors; test: Electron microscopy of WGA binding; type: in vivo

`N.N.[Cl][Pt][Cl]` [cisplatin] was tested, and the tumor growth delay (GL-261 tumors) was 3 to 4 days and the “delay of tumor growth” value (H460 tumors) was 11 days.
For wheat germ agglutinin [WGA], the “WGA-FITC binding to tumor vasculature” value [1] was “efficiently and specifically bind; also recorded: much greater binding ability” and the “location of WGA binding” value [2] was “most WGA binding was located at endothelial intercellular gaps”.
